Experiments:
[1] = molecular target: T1, Nitric oxide synthase, inducible (Mus musculus, UniProt P29477)
T1 sequence (P29477 whole entry): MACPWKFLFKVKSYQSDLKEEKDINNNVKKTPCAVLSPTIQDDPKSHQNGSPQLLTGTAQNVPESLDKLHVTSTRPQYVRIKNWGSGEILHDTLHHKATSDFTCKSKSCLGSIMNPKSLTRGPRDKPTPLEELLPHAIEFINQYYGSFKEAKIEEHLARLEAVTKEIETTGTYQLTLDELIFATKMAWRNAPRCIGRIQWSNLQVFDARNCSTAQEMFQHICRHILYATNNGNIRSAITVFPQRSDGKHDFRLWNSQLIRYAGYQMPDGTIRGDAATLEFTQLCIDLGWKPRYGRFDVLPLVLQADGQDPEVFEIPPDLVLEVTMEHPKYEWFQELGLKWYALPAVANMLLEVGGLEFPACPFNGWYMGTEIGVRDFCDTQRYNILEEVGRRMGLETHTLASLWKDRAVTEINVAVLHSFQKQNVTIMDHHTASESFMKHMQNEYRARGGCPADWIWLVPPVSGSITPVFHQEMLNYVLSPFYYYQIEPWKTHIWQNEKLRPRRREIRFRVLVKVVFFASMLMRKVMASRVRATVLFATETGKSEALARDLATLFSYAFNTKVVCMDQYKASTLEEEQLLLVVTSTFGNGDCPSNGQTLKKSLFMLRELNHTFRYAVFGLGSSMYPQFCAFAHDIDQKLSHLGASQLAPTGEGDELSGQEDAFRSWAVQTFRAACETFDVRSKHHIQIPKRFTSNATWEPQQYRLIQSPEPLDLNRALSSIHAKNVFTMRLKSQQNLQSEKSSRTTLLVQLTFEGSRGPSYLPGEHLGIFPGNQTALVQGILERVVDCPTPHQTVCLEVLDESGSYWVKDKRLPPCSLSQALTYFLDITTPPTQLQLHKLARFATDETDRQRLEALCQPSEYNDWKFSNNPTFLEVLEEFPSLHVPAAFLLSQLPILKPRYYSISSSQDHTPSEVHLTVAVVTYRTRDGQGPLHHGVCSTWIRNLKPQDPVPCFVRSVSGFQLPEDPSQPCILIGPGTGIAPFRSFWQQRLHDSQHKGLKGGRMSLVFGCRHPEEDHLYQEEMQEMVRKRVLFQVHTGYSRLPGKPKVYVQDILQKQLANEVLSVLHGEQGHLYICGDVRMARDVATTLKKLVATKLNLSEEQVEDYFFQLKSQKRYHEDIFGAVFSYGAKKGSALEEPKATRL
Description: Inhibition of mouse recombinant iNOS expressed in Escherichia coli using L-arginine as substrate up to 180 seconds by hemoglobin capture assay

Nitric oxide synthase 3 = molecular target: T2, Nitric oxide synthase 3 (Bos taurus, UniProt P29473)
T2 sequence (P29473 whole entry): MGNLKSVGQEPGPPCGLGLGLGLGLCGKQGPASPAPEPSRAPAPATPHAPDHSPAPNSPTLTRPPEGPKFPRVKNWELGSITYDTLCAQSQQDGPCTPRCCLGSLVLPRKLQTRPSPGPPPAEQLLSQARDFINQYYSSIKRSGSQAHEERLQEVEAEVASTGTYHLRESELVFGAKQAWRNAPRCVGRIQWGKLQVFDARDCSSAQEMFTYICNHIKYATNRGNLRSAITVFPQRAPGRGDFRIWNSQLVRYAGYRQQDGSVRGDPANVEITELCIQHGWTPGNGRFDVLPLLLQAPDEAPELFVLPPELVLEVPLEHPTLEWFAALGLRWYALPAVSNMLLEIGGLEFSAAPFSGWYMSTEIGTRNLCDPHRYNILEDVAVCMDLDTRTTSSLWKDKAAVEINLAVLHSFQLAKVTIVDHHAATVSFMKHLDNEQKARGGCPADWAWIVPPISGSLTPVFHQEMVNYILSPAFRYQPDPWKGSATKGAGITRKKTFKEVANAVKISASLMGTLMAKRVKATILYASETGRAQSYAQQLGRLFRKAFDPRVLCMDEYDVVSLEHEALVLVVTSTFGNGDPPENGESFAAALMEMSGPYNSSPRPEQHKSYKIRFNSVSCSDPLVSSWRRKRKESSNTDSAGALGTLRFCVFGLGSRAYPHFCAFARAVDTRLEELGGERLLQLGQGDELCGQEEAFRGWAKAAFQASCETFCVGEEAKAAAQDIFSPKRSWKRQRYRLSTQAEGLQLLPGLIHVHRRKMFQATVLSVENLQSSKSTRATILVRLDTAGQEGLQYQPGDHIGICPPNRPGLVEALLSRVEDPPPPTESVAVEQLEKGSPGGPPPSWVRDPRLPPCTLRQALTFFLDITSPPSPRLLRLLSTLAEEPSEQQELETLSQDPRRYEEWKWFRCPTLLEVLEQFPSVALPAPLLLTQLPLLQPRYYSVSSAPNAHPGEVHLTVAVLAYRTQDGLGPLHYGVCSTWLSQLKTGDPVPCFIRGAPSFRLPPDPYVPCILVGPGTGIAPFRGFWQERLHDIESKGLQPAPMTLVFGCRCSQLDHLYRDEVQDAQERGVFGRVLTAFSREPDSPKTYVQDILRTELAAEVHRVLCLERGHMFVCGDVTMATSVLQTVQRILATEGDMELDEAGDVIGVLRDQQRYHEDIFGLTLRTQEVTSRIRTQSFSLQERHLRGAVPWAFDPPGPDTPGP
Description: Inhibition of bovine recombinant eNOS expressed in Escherichia coli using L-arginine as substrate up to 180 seconds by hemoglobin capture assay

Ki [1]: 2.93 µM
Ki (Nitric oxide synthase 3): 5.26 µM
SMILES: Cc1cc(N)nc(COCCOCc2cc(C)cc(N)n2)c1

Reference: ChEMBL document CHEMBL2429788, “Chiral linkers to improve selectivity of double-headed neuronal nitric oxide synthase inhibitors” (Bioorg Med Chem Lett, 2013)
